The results in this text go back to patent publication US8648094B2, “IAP BIR domain binding compounds” (Pharmascience, Inc., priority 2006, dated 2014).

A value given as a limit tells only on which side of the number the result lay.

The subject of the assay is SKOV-3 cells. Briefly: Survival MTT assay. The format is cell-based. Particulars: Homo sapiens, SK-OV-3, 72 hours. On the procedure: One day prior the treatment with compound, 2000 to 4000 cells per well were plated in a tissue culture treated 96 well format dish with 100 uL of media and incubated at 37° C., 5% CO2. On the day of compound treatment, compounds were diluted with cell culture media to a working stock concentration of 2×. 100 ul of diluted compound were then added to each well. The treated plate was incubated for 72 hours at 37° C., 5% CO2. Upon incubation, the cell viability was assessed as follows; 20 uL of MTT reagent (5 mg/mL) were added per well to cell plate. The plate was incubated for 2 hrs at 37° C. in presence of 5% CO2. The supernatant was then removed from the plate and 100 uL of isopropanol was added. The absorbance was measured in a TECAN spectrophotometer at 570 nm. The percentage of viability was expressed in percentage of the signal obtained with non treated cells.
(In general: Formazan colour is commonly taken as a measure of viable cells.)

One may read the EC50 as the midpoint of the concentration-response curve. Low readings indicate a more potent agent, high ones a less potent agent. In the case of `CN[C@@H](C)C(=O)N[C@H](C(=O)N1CCC[C@H]1CN(CCc1ccc(F)cc1)S(=O)(=O)c1cccc(S(=O)(=O)N(CCc2ccc(F)cc2)C[C@@H]2CCCN2C(=O)[C@@H](NC(=O)[C@H](C)NC)C(C)(C)C)c1)C(C)(C)C` [Compound 57], the EC50 lay within 10 to 25 nM.
`CN[C@@H](C)C(=O)N[C@H](C(=O)N1CCC[C@H]1CN(CCc1ccccc1)C(=O)CCCC(=O)N(CCc1ccccc1)C[C@@H]1CCCN1C(=O)[C@@H](NC(=O)[C@H](C)NC)C(C)(C)C)C(C)(C)C` [Compound 3]: the EC50 was in the range of 10 to 25 nM.
For `CN[C@@H](C)C(=O)N[C@H](C(=O)N1CCC[C@H]1CN(CCc1ccccc1)C(=O)CN(C)Cc1ccc(CN(C)CC(=O)N(CCc2ccccc2)C[C@@H]2CCCN2C(=O)[C@@H](NC(=O)[C@H](C)NC)C(C)(C)C)cc1)C(C)(C)C` [Compound 43], the EC50 was in the range of 10 to 25 nM.
To `CN[C@@H](C)C(=O)N[C@H](C(=O)N1CCC[C@H]1CN(CCc1ccc(F)cc1)C(=O)CNC(=O)c1ccc(-c2ccc(C(=O)NCC(=O)N(CCc3ccc(F)cc3)C[C@@H]3CCCN3C(=O)[C@@H](NC(=O)[C@H](C)NC)C(C)(C)C)cc2)cc1)C(C)(C)C` [Compound 76] belongs < 10 nM.
For `CN[C@@H](C)C(=O)N[C@H](C(=O)N1CCC[C@H]1CN(CCc1ccccc1)S(=O)(=O)c1cccc(S(=O)(=O)N(CCc2ccccc2)C[C@@H]2CCCN2C(=O)[C@@H](NC(=O)[C@H](C)NC)C(C)(C)C)c1)C(C)(C)C` [Compound 36], the EC50 is < 10 nM.
As to `CN[C@@H](C)C(=O)N[C@H](C(=O)N1CCC[C@H]1CN(CCc1ccccc1)C(=O)CNC(=O)c1ccc2cc(C(=O)NCC(=O)N(CCc3ccccc3)C[C@@H]3CCCN3C(=O)[C@@H](NC(=O)[C@H](C)NC)C(C)(C)C)ccc2c1)C(C)(C)C` [Compound 63], the EC50 was < 10 nM.
The figure for `CN[C@@H](C)C(=O)N[C@H](C(=O)N1CCC[C@H]1CN(CCc1ccccc1)C(=O)c1ccc(-c2ccc(C(=O)N(CCc3ccccc3)C[C@@H]3CCCN3C(=O)[C@@H](NC(=O)[C@H](C)NC)C(C)(C)C)cc2)cc1)C(C)(C)C` [Compound 4] is < 10 nM; for `CN[C@@H](C)C(=O)N[C@H](C(=O)N1CCC[C@H]1CN(CCc1ccccc1)C(=O)CCCCCCCCC(=O)N(CCc1ccccc1)C[C@@H]1CCCN1C(=O)[C@@H](NC(=O)[C@H](C)NC)C(C)(C)C)C(C)(C)C` [Compound 2] it is < 10 nM.
Regarding `CN[C@@H](C)C(=O)N[C@H](C(=O)N1CCC[C@H]1C(=O)N(CCc1ccccc1)Cc1ccc(CN(CCc2ccccc2)C(=O)[C@@H]2CCCN2C(=O)[C@@H](NC(=O)[C@H](C)NC)C(C)(C)C)cc1)C(C)(C)C` [Compound 79], the EC50 fell in the range of 10 to 25 nM.
On to `CN[C@@H](C)C(=O)N[C@H](C(=O)N1CCC[C@H]1CN(CCc1ccccc1)C(=O)c1ccc(Oc2ccc(C(=O)N(CCc3ccccc3)C[C@@H]3CCCN3C(=O)[C@@H](NC(=O)[C@H](C)NC)C(C)(C)C)cc2)cc1)C(C)(C)C` [Compound 27], for which the EC50 is > 25 nM.
Regarding `CN[C@@H](C)C(=O)N[C@H](C(=O)N1CCC[C@H]1CN(CCc1ccccc1)S(=O)(=O)c1ccc(-c2ccc(S(=O)(=O)N(CCc3ccccc3)C[C@@H]3CCCN3C(=O)[C@@H](NC(=O)[C@H](C)NC)C(C)(C)C)cc2)cc1)C(C)(C)C` [Compound 13], the EC50 was 10 to 25 nM.
Molecule `CN[C@@H](C)C(=O)N[C@H](C(=O)N1CCC[C@H]1CN(CCc1ccccc1)S(=O)(=O)c1ccc2ccc(S(=O)(=O)N(CCc3ccccc3)C[C@@H]3CCCN3C(=O)[C@@H](NC(=O)[C@H](C)NC)C(C)(C)C)cc2c1)C(C)(C)C` [Compound 90] returned an EC50 of 10 to 25 nM.
To `CN[C@@H](C)C(=O)N[C@H](C(=O)N1CCC[C@H]1CN(CCc1ccccc1)C(=O)CCC(=O)N(CCc1ccccc1)C[C@@H]1CCCN1C(=O)[C@@H](NC(=O)[C@H](C)NC)C(C)(C)C)C(C)(C)C` [Compound 6] belongs > 25 nM; to `CN[C@@H](C)C(=O)N[C@H](C(=O)N1CCC[C@H]1CN(CCc1ccc(F)cc1)C(=O)CNC(=O)C(=O)NCC(=O)N(CCc1ccc(F)cc1)C[C@@H]1CCCN1C(=O)[C@@H](NC(=O)[C@H](C)NC)C(C)(C)C)C(C)(C)C` [Compound 73], < 10 nM; to `CN[C@@H](C)C(=O)N[C@H](C(=O)N1CCC[C@H]1CN(CCc1ccccc1)C(=O)CNC(=O)c1ccc2ccc(C(=O)NCC(=O)N(CCc3ccccc3)C[C@@H]3CCCN3C(=O)[C@@H](NC(=O)[C@H](C)NC)C(C)(C)C)cc2c1)C(C)(C)C` [Compound 85], < 10 nM.
As for `CN[C@@H](C)C(=O)N[C@H](C(=O)N1CCC[C@H]1CN(CCc1ccccc1)C(=O)CNC(=O)c1cccc(C(=O)NCC(=O)N(CCc2ccccc2)C[C@@H]2CCCN2C(=O)[C@@H](NC(=O)[C@H](C)NC)C(C)(C)C)n1)C(C)(C)C` [Compound 88], the EC50 is > 25 nM.
To `CN[C@@H](C)C(=O)N[C@H](C(=O)N1CCC[C@H]1CN(CCc1ccc(F)cc1)C(=O)c1ccc(-c2ccc(C(=O)N(CCc3ccc(F)cc3)C[C@@H]3CCCN3C(=O)[C@@H](NC(=O)[C@H](C)NC)C(C)(C)C)cc2)cc1)C(C)(C)C` [Compound 58] belongs 10 to 25 nM; to `CN[C@@H](C)C(=O)N[C@H](C(=O)N1CCC[C@H]1CN(CCc1ccccc1F)C(=O)CCCCCCCCC(=O)N(CCc1ccccc1F)C[C@@H]1CCCN1C(=O)[C@@H](NC(=O)[C@H](C)NC)C(C)(C)C)C(C)(C)C` [Compound 46], < 10 nM; to `CN[C@@H](C)C(=O)N[C@H](C(=O)N1CCC[C@H]1CN(CCc1ccc(F)cc1)C(=O)CNC(=O)c1cccc(C(=O)NCC(=O)N(CCc2ccc(F)cc2)C[C@@H]2CCCN2C(=O)[C@@H](NC(=O)[C@H](C)NC)C(C)(C)C)c1)C(C)(C)C` [Compound 83], < 10 nM.
`CN[C@@H](C)C(=O)N[C@H](C(=O)N1CCC[C@H]1CN(CCc1ccccc1)C(=O)CCCCCCC(=O)N(CCc1ccccc1)C[C@@H]1CCCN1C(=O)[C@@H](NC(=O)[C@H](C)NC)C(C)(C)C)C(C)(C)C` [Compound 7] registered an EC50 of 10 to 25 nM.
On to `CN[C@@H](C)C(=O)N[C@H](C(=O)N1CCC[C@H]1CN(CCc1ccccc1)C(=O)[C@H]1CCCN1C(=O)c1ccc(C(=O)N2CCC[C@@H]2C(=O)N(CCc2ccccc2)C[C@@H]2CCCN2C(=O)[C@@H](NC(=O)[C@H](C)NC)C(C)(C)C)cc1)C(C)(C)C` [Compound 81], for which the EC50 was > 25 nM.
For `CN[C@@H](C)C(=O)N[C@H](C(=O)N1CCC[C@H]1CN(CCc1ccc(F)cc1)C(=O)CNC(=O)c1ccc(C(=O)NCC(=O)N(CCc2ccc(F)cc2)C[C@@H]2CCCN2C(=O)[C@@H](NC(=O)[C@H](C)NC)C(C)(C)C)cc1)C(C)(C)C` [Compound 71], the EC50 is < 10 nM.
For `CN[C@@H](C)C(=O)N[C@H](C(=O)N1CCC[C@H]1CN(CCc1ccccc1)C(=O)[C@H](C)NC(=O)c1ccc(C(=O)N[C@@H](C)C(=O)N(CCc2ccccc2)C[C@@H]2CCCN2C(=O)[C@@H](NC(=O)[C@H](C)NC)C(C)(C)C)cc1)C(C)(C)C` [Compound 62], the EC50 was > 25 nM.
`CN[C@@H](C)C(=O)N[C@H](C(=O)N1CCC[C@H]1CN(CCc1ccccc1)C(=O)CNC(=O)CCCCC(=O)NCC(=O)N(CCc1ccccc1)C[C@@H]1CCCN1C(=O)[C@@H](NC(=O)[C@H](C)NC)C(C)(C)C)C(C)(C)C` [Compound 50]: the EC50 lay in the range of 10 to 25 nM.
To `CN[C@@H](C)C(=O)N[C@H](C(=O)N1CCC[C@H]1CN(CCc1ccccc1)C(=O)CN(C)C(=O)c1ccc(-c2ccc(C(=O)N(C)CC(=O)N(CCc3ccccc3)C[C@@H]3CCCN3C(=O)[C@@H](NC(=O)[C@H](C)NC)C(C)(C)C)cc2)cc1)C(C)(C)C` [Compound 77] belongs 10 to 25 nM; to `CN[C@@H](C)C(=O)N[C@H](C(=O)N1CCC[C@H]1CN(C[C@@H](C)c1ccccc1)C(=O)CCCCCCCCC(=O)N(C[C@@H]1CCCN1C(=O)[C@@H](NC(=O)[C@H](C)NC)C(C)(C)C)C[C@@H](C)c1ccccc1)C(C)(C)C` [Compound 22], > 25 nM; to `CN[C@@H](C)C(=O)N[C@H](C(=O)N1CCC[C@H]1CN(CCc1ccc(F)cc1)C(=O)CCC(=O)N(CCc1ccc(F)cc1)C[C@@H]1CCCN1C(=O)[C@@H](NC(=O)[C@H](C)NC)C(C)(C)C)C(C)(C)C` [Compound 48], 10 to 25 nM.
Molecule `CN[C@@H](C)C(=O)N[C@H](C(=O)N1CCC[C@H]1CN(CCc1ccccc1)C(=O)CCCCCCCCCCC(=O)N(CCc1ccccc1)C[C@@H]1CCCN1C(=O)[C@@H](NC(=O)[C@H](C)NC)C(C)(C)C)C(C)(C)C` [Compound 18] yielded an EC50 of 10 to 25 nM.
The molecule `CN[C@@H](C)C(=O)N[C@H](C(=O)N1CCC[C@H]1CN(CCc1ccccc1)C(=O)c1ccc(-c2cccc(C(=O)N(CCc3ccccc3)C[C@@H]3CCCN3C(=O)[C@@H](NC(=O)[C@H](C)NC)C(C)(C)C)c2)cc1)C(C)(C)C` [Compound 64] registered an EC50 of 10 to 25 nM.
In the case of `CN[C@@H](C)C(=O)N[C@@H](CC1CCCCC1)C(=O)N1CCC[C@H]1CN(CCc1ccccc1)C(=O)CCCCCCCCC(=O)N(CCc1ccccc1)C[C@@H]1CCCN1C(=O)[C@H](CC1CCCCC1)NC(=O)[C@H](C)NC` [Compound 9], the EC50 is > 25 nM.
To `CN[C@@H](C)C(=O)N[C@H](C(=O)N1CCC[C@H]1CN(CCc1ccccc1)C(=O)c1ccc(C(=O)N(CCc2ccccc2)C[C@@H]2CCCN2C(=O)[C@@H](NC(=O)[C@H](C)NC)C(C)(C)C)cc1)C(C)(C)C` [Compound 1] belongs 10 to 25 nM.
`CN[C@@H](C)C(=O)N[C@H](C(=O)N1CCC[C@H]1CN(CCc1ccccc1)S(=O)(=O)c1ccc2cc(S(=O)(=O)N(CCc3ccccc3)C[C@@H]3CCCN3C(=O)[C@@H](NC(=O)[C@H](C)NC)C(C)(C)C)ccc2c1)C(C)(C)C` [Compound 92]: the EC50 is < 10 nM.
For `CN[C@@H](C)C(=O)N[C@H](C(=O)N1CCC[C@H]1CN(CCc1ccccc1)C(=O)[C@@H](C)NC(=O)c1ccc(C(=O)N[C@H](C)C(=O)N(CCc2ccccc2)C[C@@H]2CCCN2C(=O)[C@@H](NC(=O)[C@H](C)NC)C(C)(C)C)cc1)C(C)(C)C` [Compound 59], the EC50 was < 10 nM.
